Counter-ions that a name gives are not always drawn.

This assay deals with anesthetized rabbits. Description: ST segment elevation by occlusion of the circumflex coronary artery in anesthetized rabbits (anti-ischemic activity, with blood pressure and heart rate). It is filed as in vivo, rabbit. The conditions noted are these: for Heart rate / Mean blood pressure: 5 minutes after i.v. administration; for Heart rate / Mean blood pressure / effect on heart rate (in words): compound B 0.63 mg/kg; for effect on ST segment elevation (in words): i.v. slow bolus, compound A 0.04 mg/kg or compound B 0.63 mg/kg, 5 min before 5 min circumflex occlusion. As to the method: The anti-ischemic activity of 3-(R)-[3-(2-methoxyphenylthio)-2-(S)-methyl-propyl]amino-3,4-dihydro-2H-1,5-benzoxathiepine combined with ivabradine was evaluated in a model of ST segment elevation by occlusion of the circumflex coronary artery in anesthetized rabbits.
Male rabbits (2.2-2.5 kg) are anesthetized with pentobarbital. A catheter is placed in a carotid artery in order to continuously measure the animal's blood pressure. Blood samples are taken in order to regularly check blood gases and to modify ventilation parameters as needed. The compounds to be tested or the carriers are administered via a catheter placed in an ear vein. An electrocardiogram is recorded, also continuously, in configuration II in order to determine the variations of amplitude of the ST segment. The animal's thorax is opened and a ligature is placed around the left coronary artery (circumflex) in order to induce regional myocardial ischemia (Verscheure et al., 1995). After a period of stabilization of all hemodynamic parameters, the compounds are administered in a slow bolus (1 minute). Five minutes after the compounds are administered, the circumflex artery is occluded for 5 minutes and then the ligature is released. The heart is removed and the risk area (ligatured region of the circumflex artery) is evaluated. Four groups of rabbits are studied: • group receiving carrier: 40% polyethylene 300, 60% physiological saline; • group receiving 3-(R)-[3-(2-methoxyphenylthio)-2-(S)-methyl-propyl]amino-3,4-dihydro-2H-1,5-benzoxathiepine (compound A) at a dose of 0.04 mg/kg; • group receiving ivabradine hydrochloride (compound B) at a dose of 0.63 mg/kg; • group receiving compound A (0.04 mg/kg)+compound B (0.63 mg/kg).
The doses were selected in order to have submaximal pharmacological activities and thus to uncover potential additive or synergistic effects.

As for `COc1ccccc1SC[C@@H](C)CN[C@@H]1COc2ccccc2SC1` [Compound A, 3-(R)-[3-(2-methoxyphenylthio)-2-(S)-methyl-propyl]amino-3,4-dihydro-2H-1,5-benzoxathiepine], the “effect on ST segment elevation (in words)” value is recorded as “slight inhibition”. Also, under “compound A 0.04 mg/kg”, the Heart rate amounted to 275 ± 10 bpm and the Mean blood pressure is 92 ± 4 mmHg. Also, for the setting “i.v., compound A 0.04 mg/kg”, the “effect on blood pressure (in words)” value is given as “without changing” and the “effect on heart rate (in words)” value is “without changing”.
For the compound `COc1cc2c(cc1OC)CC(=O)N(CCCN(C)C[C@H]1Cc3cc(OC)c(OC)cc31)CC2` [Compound B, ivabradine hydrochloride, reference compound], the “effect on ST segment elevation (in words)” value was “lower ST segment elevation”. Moreover, where the note is “compound A 0.04 mg/kg”, the Heart rate amounted to 211 ± 10 bpm and the Mean blood pressure turned out to be 92 ± 3 mmHg. For the same compound, the “effect on heart rate (in words)” value (i.v., compound A 0.04 mg/kg) was “relatively significant and constant bradycardia”.

The values are drawn from patent US9393228B2, “Combination of a slow sodium current blocker and a sinus If current inhibitor, and the pharmaceutical compositions containing said combination” (PIERRE FABRE MEDICAMENT, priority 2013, dated 2016).
